Source: PMC3003444 (Chemistry & biology, 2010)
Values after ≈ are worked out from the molar mass of the structure shown. Where two headings read alike, the source gives them in different places. Marks after values point to notes of the source that are not given here.

Key:
[1] = system: Chlamydia trachomatis; test: microbe, parasite or virus in culture; type: cell-based
[2] = system: Lactobacillus acidophilus; test: microbe, parasite or virus in culture; type: cell-based
[3] = system: Staphylococcus epidermidis; test: microbe, parasite or virus in culture; type: cell-based
[4] = system: E. coli strains harboring the indicated amino acid at SPase residue 84; test: MIC for E. coli strains with mutant SPase residue 84; details: for MIC: Escherichia coli
[5] = system: E. coli strains harboring the indicated amino acid at SPase residue 84
[6] = system: Bacteroides fragilis; test: microbe, parasite or virus in culture; type: cell-based
[7] = system: Corynebacterium efficiens; test: microbe, parasite or virus in culture; type: cell-based
[8] = system: Brevibacillus brevis; test: microbe, parasite or virus in culture; type: cell-based
[9] = system: Corynebacterium glutamicum; test: microbe, parasite or virus in culture; type: cell-based
[10] = system: Lactobacillus gasseri; test: microbe, parasite or virus in culture; type: cell-based
[11] = system: Pseudomonas aeruginosa; test: microbe, parasite or virus in culture; type: cell-based
[12] = system: Streptococcus agalactiae; test: microbe, parasite or virus in culture; type: cell-based
[13] = system: Rhodococcus opacus; test: microbe, parasite or virus in culture; type: cell-based
[14] = system: Enterococcus faecalis; details: cited from earlier work
[15] = system: Clostridium perfringens; test: microbe, parasite or virus in culture; type: cell-based
[16] = system: Staphylococcus aureus; type: cell-based; details: S. aureus mutant, Pro^29 replaced by Ser
[17] = system: Clostridia and Bacteriodetes; test: MIC, Clostridia and Bacteriodetes; type: cell-based
[18] = system: Lactobacillus plantarum; test: microbe, parasite or virus in culture; type: cell-based; details: Lactiplantibacillus plantarum
[19] = system: Streptococcus pneumoniae; test: microbe, parasite or virus in culture; type: cell-based
[20] = system: Prevotella copris; test: microbe, parasite or virus in culture; type: cell-based
[21] = system: Lactococcus lactis; type: cell-based
[22] = system: Klebsiella pneumoniae; test: microbe, parasite or virus in culture; type: cell-based
[23] = system: Clostridium difficile; test: microbe, parasite or virus in culture; type: cell-based; details: Clostridioides difficile
[24] = system: Yersinia pestis; test: microbe, parasite or virus in culture; type: cell-based
[25] = system: Streptococcus pyogenes; test: microbe, parasite or virus in culture; type: cell-based
[26] = system: Escherichia coli; test: microbe, parasite or virus in culture; type: cell-based
[27] = system: Clostridium bolteae; test: microbe, parasite or virus in culture; type: cell-based; details: Enterocloster bolteae
[28] = system: Bacillus subtilis; test: microbe, parasite or virus in culture; type: cell-based
[29] = system: Helicobacter pylori; test: microbe, parasite or virus in culture; type: cell-based
[30] = system: Lactobacillales; test: organism not typed; type: cell-based
[31] = system: Staphylococcus haemolyticus; test: microbe, parasite or virus in culture; type: cell-based

For `CCCCCCCCCCCCCCCC(=O)N(C)[C@H](CO)C(=O)N[C@H](C)C(=O)NCC(=O)N(C)[C@@H]1C(=O)N[C@@H](C)C(=O)N[C@H](C(=O)O)Cc2ccc(O)c(c2)-c2cc1ccc2O` [arylomycin C16], the MIC [1] was 6 µg/mL (≈ 6.81 µM), the MIC [2] was greater than 128 µg/mL and the MIC ([3]; Staphylococcus epidermidis) was 0.25 µg/mL (≈ 0.284 µM). For the same compound, the “elevated MIC compared to the wild type strain” value ([3]; resistant mutants (remainder), SpsIB Ser to Pro at position 31) was “greater than 256 fold”, the “elevated MIC compared to the wild type strain” value ([3]; resistant mutants (~75%), SpsIB Ser to Pro at position 29) was 32 fold and the “sensitivity of Pro to Ser SPase mutant strain” value (“sensitivity of Pro” below) ([4]; E. coli mutant, Pro^84 replaced by Ser) was “high degree of sensitivity”. The MIC ([4]; His at SPase residue 84 (temperature sensitive phenotype)) was 4 µg/mL (≈ 4.54 µM), the MIC ([4]; Phe at SPase residue 84 (temperature sensitive phenotype)) was 2 µg/mL (≈ 2.27 µM) and the MIC ([4]; Pro at SPase residue 84, detection limit 256 μg/ml) was greater than 256 µg/mL. The MIC ([4]; read-out: MICs, all of the other amino acids (not Pro) at SPase residue 84) was no more than 16 µg/mL, the “decrease of MIC on permeabilizing with polymyxin B nonapeptide” value [5] was no more than 4 fold and the MIC [6] was greater than 16 µg/mL. For the same compound, the MIC [7] was greater than 64 µg/mL, the MIC [8] was greater than 64 µg/mL and the MIC [9] was 2 µg/mL (≈ 2.27 µM). The MIC [10] was greater than 128 µg/mL, the “decrease of MIC on permeabilizing with polymyxin B nonapeptide” value ([11]; P. aeruginosa Pro to Ser mutant) was no more than 4 fold and the “sensitivity of Pro” value ([11]; P. aeruginosa mutant, Pro^84 replaced by Ser) was “high degree of sensitivity”. It also gave an MIC ([11]; Pseudomonas aeruginosa) greater than 128 µg/mL, an MIC [12] greater than 128 µg/mL and an MIC [13] of 2 µg/mL (≈ 2.27 µM). For the same compound, the MIC [14] was >64 ^b μg/ml, the MIC [15] was greater than 16 µg/mL and the “sensitivity of Pro” value [16] was “high degree of sensitivity”. It also gave an MIC [17] greater than 16 µg/mL, an MIC [18] greater than 128 µg/mL and an MIC [19] of 16 µg/mL (≈ 18.2 µM). For the same compound, the MIC [20] was greater than 16 µg/mL, the MIC [21] was 16, >128 ^a μg/ml and the MIC [22] was greater than 128 µg/mL. It also gave an MIC [23] greater than 16 µg/mL, an MIC [24] of 4 µg/mL (≈ 4.54 µM) and an MIC [25] of 16 µg/mL (≈ 18.2 µM). The MIC [26] was greater than 128 µg/mL, the MIC [27] was greater than 16 µg/mL and the MIC [28] was greater than 128 µg/mL. The MIC [29] was 4 µg/mL (≈ 4.54 µM), the MIC [30] was greater than 64 µg/mL and the MIC [31] was 2 µg/mL (≈ 2.27 µM).
